# Columns and labels:
# placenta = details: cited from earlier work
# [1] = test system: dually perfused human placental lobule
Structure (SMILES),fetal/maternal concentration ratio in presence of HSA versus absence of the protein (placenta),"effect of HSA, AAG or their combination in the perfusion medium on transfer of AP across the placental lobule ([1]; HSA, AAG, or their combination)","Antipyrine Fetal/Maternal concentration ratio ([1]; human, 20 µg/mL)"
COc1ccc(Cl)cc1C(=O)NCCc1ccc(S(=O)(=O)NC(=O)NC2CCCCC2)cc1 [glyburide],significantly lower,,
"Cc1cc(=O)n(-c2ccccc2)n1C [Antipyrine, antipyrine]",,not affected,0.84 ± 0.11

# — paper PMC4435547 (The journal of maternal-fetal & neonatal medicine : the …, 2009)
